What was measured:
HepG2 tumours = assay: HepG2 liver xenograft model; format: in vivo, nude mice
Protocol: In the orthotopic Hep3b2.1-7 human liver cancer model, treatment of mice (n=10) began 14 days after inoculation of 2.5 × 10^6 cells. […] To initiate tumour xenografts, MDA-MB-231, PC3, Cal27 and HepG2 cells were injected s.c. into nude mice (n=8) at 4, 5, 2 and 2 × 10^7 cells ml^−1, respectively. […] In the B16F0 lung metastasis model, 2 × 10^5 cells were injected via the tail vein of C57Bl6 mice (n=8). […] Surface lung macrometastases were counted for each group (n=9) upon study termination. In the intrasplenic HT-29 xenograft model, 1 × 10^6 cells in 100 μl were injected into the spleen. […] Solid tumours were measured in two dimensions (length and width) and the tumour volume (cm^3) was calculated using the equation: V=length × width^2 × π/6. The anti-tumour activity was expressed as percent tumour growth inhibition (%TGI). Further details are available in Supplementary Methods. […]
antibody. […]
(§1) staining. For quantification, three independent visual fields (20x magnification) were chosen and positive stained spots or vessels with identifiable lumen were counted.
(§2) Angiogenesis inhibition and induction were calculated using the equations: […]
regimen both before and after tumour cell inoculation (days -6, -3, 0, +3, +6) or only after tumour cell inoculation (days 0, +3, +6). B16 cell (2x105) were inoculated via tail vein injections and mice were culled and assessed for lung metastases on day 12. […]

[1] = test system: FGF2-induced vascularisation of AngioSponge; assay: AngioSponge in vivo angiogenesis model (CD31/PECAM-1 staining); set-up: species or system mice; conditions: s.c. daily or twice-weekly, 10 days
Protocol: Angiogenesis in vivo was evaluated using the Angiosponge model in which subcutaneously implanted, agarose-captured FGF2 gelfoam sterile sponges (Pfizer, West Ryde, Australia) induces vascularisation over a 10-day period responsive to angiogenesis inhibition as determined by the number of vessels with identifiable lumen that stained positive for CD31/PECAM-1, an antigen present specifically on endothelial cells ([McCarty et al, 2002]). PG545 was administered s.c. on the flank distal to the AngioSponge implant. This method was also used to examine five medium-sized primary tumours from each group of Lewis Lung Carcinoma (LL/2)-bearing mice.
Cell lines, cell culture, reagents and compounds
Tumour cell lines were cultured in RPMI1640 or DMEM cell culture medium (Invitrogen, Mt Waverley, Australia), 10% foetal bovine serum (Invitrogen or Hyclone/Quantum Scientific), 100 IU/mL penicillin (Invitrogen), 100 µ g/mL streptomycin (Invitrogen or Sigma-Aldrich, Castle Hill, Australia). […]
as §1, §2

SMILES: CC(C)CCC[C@@H](C)[C@H]1CCC2C3CCC4C[C@@H](O[C@@H]5O[C@H](COS(=O)(=O)[O-])[C@@H](O[C@H]6O[C@H](COS(=O)(=O)[O-])[C@@H](O[C@H]7O[C@H](COS(=O)(=O)[O-])[C@@H](O[C@H]8O[C@H](COS(=O)(=O)[O-])[C@@H](OS(=O)(=O)[O-])[C@H](OS(=O)(=O)[O-])[C@H]8OS(=O)(=O)[O-])[C@H](OS(=O)(=O)[O-])[C@H]7OS(=O)(=O)[O-])[C@H](OS(=O)(=O)[O-])[C@H]6OS(=O)(=O)[O-])[C@H](OS(=O)(=O)[O-])[C@H]5OS(=O)(=O)[O-])CC[C@]4(C)C3CC[C@@]21C.[Na+].[Na+].[Na+].[Na+].[Na+].[Na+].[Na+].[Na+].[Na+].[Na+].[Na+].[Na+].[Na+] (stereo partly drawn) [PG545]
- TGI (HepG2 tumours; 20 mg kg^−1 once-weekly s.c.): 55%
- TGI (HepG2 tumours; 20 mg kg^−1 twice-weekly s.c.): 45%
- inhibition of CD31 staining [1]: Significant inhibition of CD31 staining

— article PMC3049593 (British Journal of Cancer, 2011)
